Test results: patent US12643871B2, “Aryl formamide compound containing chiral sulfur oxide or salt thereof, preparation method, herbicidal composition and use thereof” (Qingdao Kingagroot Chemical Compound Co., Ltd., priority 2019, dated 2026)

How the values were obtained:
Format in all cases: in vivo
Setaria viridis = test: Weeding effect in post-emergence stage; settings: 250 g/ha; 2 leaf stage; 15 days after application; fresh weight control rate
Method in brief: (§1)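 Pot-grown weeds sprayed post-emergence at the 2-leaf stage, 2 weeks after sowing, with compound in acetone/Tween 80 plus 1.5 L/ha methyl oleate concentrate at 500–15 g/ha. Fresh-weight growth control scored after 15 days in greenhouse, mean of three replicates, graded levels 0–5 (5: >85%, 0: <5%).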

Amaranthus retroflexus = test: Weeding effect in post-emergence stage; settings: 250 g/ha; 2 leaf stage; 15 days after application; fresh weight control rate
Method in brief: as §1

Echinochloa crusgali = test: Weeding effect in post-emergence stage; settings: 250 g/ha; 2 leaf stage; 15 days after application; fresh weight control rate
Method in brief: as §1

Digitaria sanguinalis = test: Weeding effect in post-emergence stage; settings: 250 g/ha; 2 leaf stage; 15 days after application; fresh weight control rate
Method in brief: as §1

Abutilon theophrasti = test: Weeding effect in post-emergence stage; settings: 250 g/ha; 2 leaf stage; 15 days after application; fresh weight control rate
Method in brief: as §1

[1] = test system: key weeds such as Digitaria sanguinalis, Leptochloa chinensis; test: Comparison experiment (post-emergence, Tables 4-7), herbicidal activity on weeds not listed separately
Excerpt: The above growth control rates are fresh weight control rates.
Experiment on weeding effect in post-emergence stage: monocotyledonous and dicotyledonous weed seeds (Descurainia sophia, Capsella bursa-pastoris, Galium aparine, Stellaria media, Lithospermum arvense, Rorippa indica, Alopecurus aequalis, Beckmannia syzigachne, Sclerochloa dura, Phleum paniculatum, Bromus japonicus, Aegilops tauschii, Phalaris arundinacea, Amaranthus retroflexus, Chenopodiaceae, Commelina communis, Sonchus arvensis, convolvulus arvensis, Cirsium setosum, Solanum nigrum, Acalypha australis, Digitaria sanguinalis, Echinochloa crusgalli, Setaria viridis, Setaria glauca, Leptochloa chinensis, Monochoria vaginalis, Sagittaria trifolia, Scirpus juncoides, Cyperus rotundus, Cyperus iria, Cyperus difformis, Fimbristylis, Portulaca oleracea, Xanthium sibiricum, Pharbitis nil) and major crop seeds (wheat, corn, rice, soybean, cotton, oilseed rape, millet, sorghum, potato, sesame, ricinus) were placed in plastic pots filled with soil, then covered with 0.5-2 cm of soil, allowed to grow in a good greenhouse environment. After 2 weeks of sowing, the test plants were treated in the 2 leaf stage. The tested compounds of the present invention were respectively dissolved in acetone, then added with Tween 80 and 1.5 liter/ha of emulsifiable concentrate of methyl oleate as synergist, diluted with a certain amount of water to obtain a solution with a certain concentration, and sprayed with a spray tower onto the plants. After the application, the plants were cultured for 15 days in the greenhouse, and then the experimental results of the weeding were counted. The doses of the used compounds were 500, 250, 125, 60, 30, 15 g/ha, and the averages were obtained by repeating for three times.
If there is no clear marker, the post-seedling test conditions are the same as above, and the experimental results are shown in Tables 4-7.

[2] = doses of 125, 60, 30, 15 g/ha, X replaced by other five membered rings

Row | SMILES | weeding effect in post-emergence stage, activity level (growth control rate), Setaria viridis (Setaria viridis) | weeding effect in post-emergence stage, activity level (growth control rate), Amaranthus retroflexus (Amaranthus retroflexus) | weeding effect in post-emergence stage, activity level (growth control rate), Echinochloa crusgali (Echinochloa crusgali) | weeding effect in post-emergence stage, activity level (growth control rate), Digitaria sanguinalis (Digitaria sanguinalis) | weeding effect in post-emergence stage, activity level (growth control rate), Abutilon theophrasti (Abutilon theophrasti) | herbicidal activity and/or crop safety compared with the corresponding racemate or S configuration ([1]; no dose stated) | herbicidal activity and/or crop safety compared with the corresponding racemate or S configuration [1, 2] | herbicidal activity and/or crop safety compared with the corresponding racemate or S configuration ([1]; dose of 120, 48, 30, 24 g/ha)
1 | CC[S@@+]([O-])c1c(C(F)(F)F)ccc(C(=O)Nc2nnc(C)o2)c1OC [Compound 306] | 5 (Level 5: growth control rate is above 85%) | 5 (Level 5: growth control rate is above 85%) | 5 (Level 5: growth control rate is above 85%) | 5 (Level 5: growth control rate is above 85%) | 5 (Level 5: growth control rate is above 85%) | better herbicidal activity and/or crop safety |  | 
2 | CCCC[S@@+]([O-])c1c(C(F)(F)F)ccc(C(=O)Nc2nnc(C)o2)c1OC [Compound 308] | 5 (Level 5: growth control rate is above 85%) | 5 (Level 5: growth control rate is above 85%) | 5 (Level 5: growth control rate is above 85%) | 5 (Level 5: growth control rate is above 85%) | 5 (Level 5: growth control rate is above 85%) | better herbicidal activity and/or crop safety |  | 
3 | COC(=O)C[S@@+]([O-])c1c(C(F)(F)F)ccc(C(=O)Nc2nnc(C)o2)c1OC [Compound 353] |  | 5 (Level 5: growth control rate is above 85%) | 5 (Level 5: growth control rate is above 85%) |  |  | better herbicidal activity and/or crop safety |  | 
4 | CCC[S@@+]([O-])c1c(C(F)(F)F)ccc(C(=O)Nc2nnnn2CC)c1F [Compound 382] |  | 5 (Level 5: growth control rate is above 85%) | 5 (Level 5: growth control rate is above 85%) |  |  |  | better herbicidal activity and/or crop safety | 
5 | CSc1c(C(=O)Nc2nnc(C)o2)ccc(C(F)(F)F)c1[S@+]([O-])C(C)C [Compound 549] |  | 5 (Level 5: growth control rate is above 85%) | 5 (Level 5: growth control rate is above 85%) | 5 (Level 5: growth control rate is above 85%) | 5 (Level 5: growth control rate is above 85%) |  |  | better herbicidal activity and/or crop safety
6 | CCCSc1c(C(=O)Nc2nnc(C)o2)ccc(C(F)(F)F)c1[S@+]([O-])CCC [Compound 570] | 5 (Level 5: growth control rate is above 85%) | 5 (Level 5: growth control rate is above 85%) | 5 (Level 5: growth control rate is above 85%) | 5 (Level 5: growth control rate is above 85%) | 5 (Level 5: growth control rate is above 85%) |  |  | 
7 | CC[S@@+]([O-])c1c(C(F)(F)F)ccc(C(=O)Nc2nnco2)c1F [Compound 574] | 5 (Level 5: growth control rate is above 85%) | 5 (Level 5: growth control rate is above 85%) | 5 (Level 5: growth control rate is above 85%) | 5 (Level 5: growth control rate is above 85%) | 5 (Level 5: growth control rate is above 85%) |  |  | 
8 | CCCC[S@@+]([O-])c1c(C(F)(F)F)ccc(C(=O)Nc2nnco2)c1F [Compound 575] | 5 (Level 5: growth control rate is above 85%) | 5 (Level 5: growth control rate is above 85%) | 5 (Level 5: growth control rate is above 85%) | 5 (Level 5: growth control rate is above 85%) | 5 (Level 5: growth control rate is above 85%) |  |  | 
9 | CCC(C)[S@@+]([O-])c1c(C(F)(F)F)ccc(C(=O)Nc2nnco2)c1F (stereo partly shown) [Compound 576] | 5 (Level 5: growth control rate is above 85%) | 5 (Level 5: growth control rate is above 85%) | 5 (Level 5: growth control rate is above 85%) | 5 (Level 5: growth control rate is above 85%) | 5 (Level 5: growth control rate is above 85%) |  |  | 
10 | CC(C)C[S@@+]([O-])c1c(C(F)(F)F)ccc(C(=O)Nc2nnco2)c1F [Compound 577] | 5 (Level 5: growth control rate is above 85%) | 5 (Level 5: growth control rate is above 85%) | 5 (Level 5: growth control rate is above 85%) | 5 (Level 5: growth control rate is above 85%) | 5 (Level 5: growth control rate is above 85%) |  |  | 
11 | O=C(Nc1nnco1)c1ccc(C(F)(F)F)c([S@+]([O-])CCC(F)(F)F)c1F [Compound 581] | 5 (Level 5: growth control rate is above 85%) | 5 (Level 5: growth control rate is above 85%) | 5 (Level 5: growth control rate is above 85%) | 5 (Level 5: growth control rate is above 85%) | 5 (Level 5: growth control rate is above 85%) |  |  | 
12 | COCC[S@@+]([O-])c1c(C(F)(F)F)ccc(C(=O)Nc2nnco2)c1F [Compound 582] | 5 (Level 5: growth control rate is above 85%) | 5 (Level 5: growth control rate is above 85%) | 5 (Level 5: growth control rate is above 85%) | 5 (Level 5: growth control rate is above 85%) | 5 (Level 5: growth control rate is above 85%) |  |  | 
13 | CCC[S@@+]([O-])c1c(C(F)F)ccc(C(=O)Nc2nnnn2C)c1Cl [Compound 618] |  | 5 (Level 5: growth control rate is above 85%) | 5 (Level 5: growth control rate is above 85%) | 5 (Level 5: growth control rate is above 85%) |  |  | better herbicidal activity and/or crop safety | 
14 | CCC[S@@+]([O-])c1c(C(F)F)ccc(C(=O)Nc2nnnn2C)c1OC [Compound 866] | 5 (Level 5: growth control rate is above 85%) | 5 (Level 5: growth control rate is above 85%) | 5 (Level 5: growth control rate is above 85%) | 5 (Level 5: growth control rate is above 85%) | 5 (Level 5: growth control rate is above 85%) |  |  | 
